Here are results for 30 compounds from patent publication US7977387B2, “Aminobenzophenone compounds” (Leo Pharma A/S, priority 2003, dated 2011).

One assay relates to IL-1β. Nature of the assay: Inhibition of IL-1β secretion in LPS stimulated peripheral blood mononuclear cells. The class given is cell-based. The settings on record: PBMC; LPS stimulated human peripheral blood mononuclear cells, 18 hours, ELISA; read-out: The median inhibition concentration (IC50, nM) of IL-1β. The protocol: (§1) To study the effect of compounds of the present invention in vitro, the inhibition of IL-1β and TNF-α secretion was determined using the following procedure:
(§2) Cytokine production was measured in the media from lipopolysaccharide (LPS) stimulated peripheral blood mononuclear cells. The mononuclear cells were isolated from human peripheral blood by Lymphoprep® (Nycomed, Norway) fractionation and suspended in RPMI 1640 (growth medium) with foetal calf serum (FCS, 2%), at a concentration of 5×10^5 cells/ml. The cells were incubated in 24-well tissue culture plates in 1 ml aliquots. Test compounds were dissolved in dimethylsulfoxide (DMSO, 10 mM) and were diluted with the medium. Compounds were added to the cells for 30 minutes, then LPS ([…] final concentration) was added. The plates were incubated for 18 hours, and the concentration of IL-β and TNF-α in the medium was determined by enzyme-linked immunosorbent assays. The median inhibitory concentrations (IC50) of the compounds were calculated.
For orientation: ELISA stands for enzyme-linked immunosorbent assay.

A further assay deals with TNF-α. Nature of the assay: Inhibition of TNF-α secretion in LPS stimulated peripheral blood mononuclear cells. In kind it is cell-based. The settings on record: PBMC; LPS stimulated human peripheral blood mononuclear cells, 18 hours, ELISA; read-out: The median inhibition concentration (IC50, nM) of TNF-α. As for the experimental part: as §1, §2

For the compound `CCC(=O)Nc1ccc(C)c(C(=O)c2ccc(Nc3ccc(F)cc3F)cc2Cl)c1` [Compound 242, N-{3-[2-Chloro-4-(2,4-difluoro-phenylamino)-benzoyl]-4-methyl-phenyl}-propionamide], the IC50 in the assay on IL-1β amounted to 1.4 nM; in the assay on TNF-α, 0.5 nM.

Turning to `Cc1ccc(NC(=O)CC2NC(=O)NC2=O)cc1C(=O)c1ccc(Nc2ccc(F)cc2F)cc1Cl` (stereo not drawn) [Compound 248, N-{3-[2-Chloro-4-(2,4-difluoro-phenylamino)-benzoyl]-4-methyl-phenyl}-2-(2,5-dioxo-imidazolidin-4-yl)-acetamide], the IC50 in the assay on IL-1β was determined as 1 nM; in the assay on TNF-α, 0.7 nM.

For `Cc1ccc(-c2cccc(CO)c2)cc1C(=O)c1ccc(Nc2ccc(F)cc2F)cc1Cl` [Compound 282, [2-Chloro-4-(2,4-difluoro-phenylamino)-phenyl]-(3′-hydroxymethyl-4-methyl-biphenyl-3-yl)-methanone], the IC50 in the assay with IL-1β worked out at 5.6 nM; in the assay on TNF-α it was 0.6 nM.

In the case of `CCOC(=O)CNC(=O)Nc1ccc(C)c(C(=O)c2ccc(Nc3ccc(F)cc3F)cc2Cl)c1` [Compound 261, (3-{3-[2-Chloro-4-(2,4-difluoro-phenylamino)-benzoyl]-4-methyl-phenyl}-ureido)-acetic acid ethyl ester], the IC50 in the assay with IL-1β stood at 2.2 nM; in the assay on TNF-α it was 1 nM.

Regarding `Cc1ccc(NC(=O)NCCc2ccccc2)cc1C(=O)c1ccc(Nc2ccc(F)cc2F)cc1Cl` [Compound 272, 1-{3-[2-Chloro-4-(2,4-difluoro-phenylamino)-benzoyl]-4-methyl-phenyl}-3-phenethyl-urea], the IC50 in the assay on IL-1β was found to be 3.2 nM; with TNF-α, 1.4 nM.

For the compound `COc1ccc(CO)cc1C(=O)c1ccc(Nc2ccc(F)cc2F)cc1Cl` [Compound 335, [2-Chloro-4-(2,4-difluoro-phenylamino)-phenyl]-(5-hydroxymethyl-2-methoxy-phenyl)-methanone], the figures for the IC50 in the assay with IL-1β and in the assay on TNF-α were 2.7 nM and 2.5 nM, respectively.

Turning to `Cc1ccc(C(=O)NCCO)cc1C(=O)c1ccc(Nc2ccc(F)cc2)cc1Cl` [Compound 190, 3-[2-Chloro-4-(4-fluoro-phenylamino)-benzoyl]-N-(2-hydroxy-ethyl)-4-methyl-benzamide], the IC50 in the assay on IL-1β is 0.6 nM; in the assay on TNF-α, 0.3 nM.

Turning to `CCOC(=O)CNC(=O)c1ccc(C)c(C(=O)c2ccc(Nc3ccc(F)cc3F)cc2Cl)c1` [Compound 158, {3-[2-Chloro-4-(2,4-difluoro-phenylamino)-benzoyl]-4-methyl-benzoylamino}-acetic acid ethyl ester], the IC50 in the assay with IL-1β stood at 0.6 nM; with TNF-α, 0.2 nM.

In the case of `COc1ccc(C(=O)NCCF)cc1C(=O)c1ccc(Nc2ccccc2)cc1Cl` [Compound 201, 3-(2-Chloro-4-phenylamino-benzoyl)-N-(2-fluoro-ethyl)-4-methoxy-benzamide], the IC50 in the assay on IL-1β came to 7.9 nM; in the assay on TNF-α, 3.2 nM.

`Cc1cc(F)ccc1Nc1ccc(C(=O)c2cc(C(=O)NCCO)ccc2C)c(Cl)c1` [Compound 119, 3-[2-Chloro-4-(4-fluoro-2-methylphenylamino)benzoyl]-N-(2-hydroxyethyl)-4-methylbenzamide]: the IC50 turned out to be 1.3 nM in the assay with IL-1β and 0.4 nM with TNF-α.

Turning to `COc1ccc(C(=O)NCC(N)=O)cc1C(=O)c1ccc(Nc2ccc(F)cc2F)cc1Cl` [Compound 144, N-Carbamoylmethyl-3-[2-chloro-4-(2,4-difluoro-phenylamino)-benzoyl]-4-methoxy-benzamide], the IC50 came to 1 nM in the assay with IL-1β and 0.6 nM in the assay with TNF-α.

`Cc1ccc(NC(=O)C2CC(=O)NC(=O)N2)cc1C(=O)c1ccc(Nc2ccc(F)cc2F)cc1Cl` (stereo not drawn) [Compound 249, 2,6-Dioxo-hexahydro-pyrimidine-4-carboxylic acid {3-[2-chloro-4-(2,4-difluoro-phenylamino)-benzoyl]-4-methyl-phenyl}-amide]: the IC50 was 1.6 nM with IL-1β and 1.1 nM with TNF-α.

In the case of `Cc1ccc(C(=O)N[C@H]2CC[C@@H](O)CC2)cc1C(=O)c1ccc(Nc2ccc(Cl)cc2F)cc1Cl` [Compound 135, 3-[2-Chloro-4-(4-chloro-2-fluoro-phenylamino)-benzoyl]-N-cis-(4-hydroxy-cyclohexyl)-4-methyl-benzamide], the IC50 came to 4 nM with IL-1β and 2 nM in the assay with TNF-α.

As to `Cc1ccc(C(=O)N[C@H]2CC[C@H](O)CC2)cc1C(=O)c1ccc(Nc2ccc(Cl)cc2F)cc1Cl` [Compound 136, 3-[2-Chloro-4-(4-chloro-2-fluoro-phenylamino)-benzoyl]-N-trans-(4-hydroxy-cyclohexyl)-4-methyl-benzamide], the IC50 was 4 nM with IL-1β and 2 nM with TNF-α.

Turning to `Cc1ccc(NC(=O)Nc2cccc(C(F)(F)F)c2)cc1C(=O)c1ccc(Nc2ccc(F)cc2F)cc1Cl` [Compound 263, 1-{3-[2-Chloro-4-(2,4-difluoro-phenylamino)-benzoyl]-4-methyl-phenyl}-3-(3-trifluoromethyl-phenyl)-urea], in the assay with TNF-α, the IC50 turned out to be 1.6 nM.

With `O=C(c1cc(OCCCO)ccc1F)c1ccc(Nc2ccc(F)cc2F)cc1Cl` [Compound 314, [2-Chloro-4-(2,4-difluoro-phenylamino)-phenyl]-[2-fluoro-5-(3-hydroxy-propoxy)-phenyl]-methanone], the IC50 in the assay with TNF-α is 2.8 nM.

On to `Cc1ccccc1C(=O)c1ccc(Nc2cccc(F)c2C)cc1Cl` [Ref. comp. f, 2-Chloro-4-(3-fluoro-2-methyl-phenylamino)-2′-methylbenzophenone, reference compound], for which the IC50 came to 13 nM in the assay with IL-1β and 4 nM in the assay on TNF-α.

With `Cc1ccc(NC(=O)OCc2ccccc2)cc1C(=O)c1ccc(Nc2ccc(F)cc2F)cc1Cl` [Compound 277, {3-[2-Chloro-4-(2,4-difluoro-phenylamino)-benzoyl]-4-methyl-phenyl}-carbamic acid benzyl ester], the results for the IC50 with IL-1β and in the assay on TNF-α were 2.5 nM and 0.8 nM, respectively.

For `CCCCNC(=O)Nc1ccc(C)c(C(=O)c2ccc(Nc3ccc(F)cc3F)cc2Cl)c1` [Compound 271, 1-Butyl-3-{3-[2-chloro-4-(2,4-difluoro-phenylamino)-benzoyl]-4-methyl-phenyl}-urea], the IC50 in the assay with IL-1β was found to be 1 nM; in the assay on TNF-α it was 0.4 nM.

In the case of `CNC(=O)c1ccc(C)c(C(=O)c2ccc(Nc3ccc(Cl)cc3F)cc2Cl)c1` [Compound 121, 3-[2-Chloro-4-(4-chloro-2-fluoro-phenylamino)-benzoyl]-4,N-dimethyl-benzamide], the IC50 in the assay with IL-1β came out at 2.8 nM; in the assay on TNF-α, 0.6 nM.

With `Cc1ccc(NC(=O)c2ccccc2O)cc1C(=O)c1ccc(Nc2ccc(F)cc2F)cc1Cl` [Compound 247, N-{3-[2-Chloro-4-(2,4-difluoro-phenylamino)-benzoyl]-4-methyl-phenyl}-2-hydroxy-benzamide], the IC50 in the assay with IL-1β is 5.6 nM; in the assay with TNF-α, 1.4 nM.

Take `COc1ccc(C(=O)NCC(O)CO)cc1C(=O)c1ccc(Nc2ccc(F)cc2F)cc1Cl` (stereo not drawn) [Compound 143, 3-[2-Chloro-4-(2,4-difluoro-phenylamino)-benzoyl]-N-(2,3-dihydroxy-propyl)-4-methoxy-benzamide]: the results for the IC50 in the assay with IL-1β and with TNF-α were 2.5 nM and 1.6 nM, respectively.

For the compound `CCNC(=O)Nc1ccc(C)c(C(=O)c2ccc(Nc3ccc(F)cc3F)cc2Cl)c1` [Compound 269, 1-{3-[2-Chloro-4-(2,4-difluoro-phenylamino)-benzoyl]-4-methyl-phenyl}-3-ethyl-urea], the IC50 with IL-1β came to 0.8 nM; in the assay on TNF-α, 0.6 nM.

In the case of `CCOC(=O)CNC(=O)c1ccc(OC)c(C(=O)c2ccc(Nc3c(F)cccc3F)cc2Cl)c1` [Compound 182], the figures for the IC50 in the assay on IL-1β and in the assay with TNF-α were 8.9 nM and 2.2 nM, respectively.

With `C=CCNC(=O)Nc1ccc(C)c(C(=O)c2ccc(Nc3ccc(F)cc3F)cc2Cl)c1` [Compound 267, 1-Allyl-3-{3-[2-chloro-4-(2,4-difluoro-phenylamino)-benzoyl]-4-methyl-phenyl}-urea], the results for the IC50 in the assay on IL-1β and with TNF-α were 0.4 nM and 0.2 nM, respectively.

`COc1ccc(C(=O)NCC(N)=O)cc1C(=O)c1ccc(Nc2ccccc2)cc1Cl` [Compound 203, N-Carbamoylmethyl-3-(2-chloro-4-phenylamino-benzoyl)-4-methoxy-benzamide]: the IC50 in the assay with IL-1β worked out at 6.3 nM; in the assay with TNF-α, 3.2 nM.

`Cc1ccc(NC(=O)NC(C)C)cc1C(=O)c1ccc(Nc2ccc(F)cc2F)cc1Cl` [Compound 275, 1-{3-[2-Chloro-4-(2,4-difluoro-phenylamino)-benzoyl]-4-methyl-phenyl}-3-isopropyl-urea]: the IC50 in the assay with IL-1β turned out to be 5 nM; with TNF-α it was 0.3 nM.

For the compound `COCCOCC(=O)Nc1ccc(C)c(C(=O)c2ccc(Nc3ccc(F)cc3F)cc2Cl)c1` [Compound 243, N-{3-[2-Chloro-4-(2,4-difluoro-phenylamino)-benzoyl]-4-methyl-phenyl}-2-(2-methoxy-ethoxy)-acetamide], the figures for the IC50 with IL-1β and in the assay on TNF-α were 2.8 nM and 1.3 nM, respectively.

Regarding `COCCC(=O)Nc1ccc(C)c(C(=O)c2ccc(Nc3ccc(F)cc3F)cc2Cl)c1` [Compound 241, N-{3-[2-Chloro-4-(2,4-difluoro-phenylamino)-benzoyl]-4-methyl-phenyl}-3-methoxy-propionamide], the values for the IC50 with IL-1β and in the assay on TNF-α were 1.1 nM and 0.3 nM, respectively.

`Cc1ccc(NC(=O)CCc2ccco2)cc1C(=O)c1ccc(Nc2ccc(F)cc2F)cc1Cl` [Compound 246, N-{3-[2-Chloro-4-(2,4-difluoro-phenylamino)-benzoyl]-4-methyl-phenyl}-3-furan-2-yl-propionamide]: the IC50 in the assay with TNF-α was determined as 3.2 nM.
